Data taken from patent US9452126B2, “Pharmaceutical/cosmetic compositions comprising hyaluronic acid and treatment of dermatological conditions therewith” (Galderma Research & Development, priority 2005, dated 2016).

Molecular target: T1, hyaluronidase of bovine origin (Bos taurus, UniProt Q2YDK3)
T1 sequence (Q2YDK3 36-553): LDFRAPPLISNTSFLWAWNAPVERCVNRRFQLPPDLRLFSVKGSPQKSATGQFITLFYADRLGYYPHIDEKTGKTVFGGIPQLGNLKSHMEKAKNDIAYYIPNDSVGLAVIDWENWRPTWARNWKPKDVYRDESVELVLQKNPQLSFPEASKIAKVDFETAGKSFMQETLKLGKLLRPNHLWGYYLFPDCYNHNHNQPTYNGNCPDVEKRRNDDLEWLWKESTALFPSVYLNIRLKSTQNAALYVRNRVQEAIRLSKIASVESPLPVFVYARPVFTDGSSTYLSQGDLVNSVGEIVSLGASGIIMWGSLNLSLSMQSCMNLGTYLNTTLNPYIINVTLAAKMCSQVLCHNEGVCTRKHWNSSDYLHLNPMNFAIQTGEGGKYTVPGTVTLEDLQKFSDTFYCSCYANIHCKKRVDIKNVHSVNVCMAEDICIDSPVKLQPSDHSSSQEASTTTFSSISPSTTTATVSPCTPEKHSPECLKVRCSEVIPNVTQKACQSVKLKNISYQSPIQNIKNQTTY
Assay: Inhibitory effect on hyaluronidase activity of bovine origin (turbidimetry at 600 nm)
Assay type: biochemical
Conditions: GLZ pre-incubated for 20 minutes at 37° C. with the enzyme
Description: Determination of the IC50 of GLZ, with or without Pre-Incubation at 37° C.:
GLZ, at various concentrations, is or is not pre-incubated for 20 minutes at 37° C. in the presence of the enzyme. The enzyme reaction is triggered by adding the hyaluronic acid solution (time T0). After incubation for 20 minutes, the non-hydrolyzed hyaluronic acid is precipitated by adding acidic bovine albumin solution.
In order to verify that the pre-incubation step has no effect on the stability of the hyaluronidase, an aliquot of a solution of the enzyme is placed at 37° C. for 20 minutes. Another aliquot is conserved in an ice bath for 19 minutes, and is then incubated at 37° C. for 1 minute. A solution of hyaluronic acid is then added to each aliquot (T0). After incubation for 15, or 45 minutes, the non-hydrolyzed hyaluronic acid is precipitated by addition of acidic bovine albumin solution.
Measurement of the Hyaluronidase Activity of Bovine Origin:
After the precipitation step, the turbidimetry of the solutions is determined on a spectrophotometer at a wavelength of 600 nm. The optical density (OD) of these solutions is subtracted from the OD of a control solution of hyaluronic acid (of the same concentration) not hydrolyzed by the enzyme. This difference in OD, which is inversely proportional to the concentration of hyaluronic acid, is used to measure the activity of the hyaluronidase.

SMILES: CC1(C)[C@@H](O[C@H]2O[C@H](C(=O)O)[C@@H](O)[C@H](O)[C@H]2O[C@@H]2O[C@H](C(=O)O)[C@@H](O)[C@H](O)[C@H]2O)CC[C@]2(C)[C@H]3C(=O)C=C4[C@@H]5C[C@@](C)(C(=O)O)CC[C@]5(C)CC[C@@]4(C)[C@]3(C)CC[C@@H]12 [GLZ, glycyrrhizin]
- IC50: 350 µM
